Laboratory results: PubChem BioAssay AID330 (DTP/NCI, 2004)
Values joined by “and” are separate entries in the source; they are usually repeats but may differ in a detail not shown here. Equal values may be shown once. Toxic doses and inconclusive results are not listed.

Tested on: P388 leukemia ip, CD2F1 mice, survival T/C
Assay: NCI In Vivo Anticancer Drug Screen. Data for tumor model P388 Leukemia (intraperitoneal) in CD2F1 (CDF1) mice
Conditions: endpoint: median survival time, higher = longer survival
Procedure, shortened: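 Mice carrying the transplanted tumor received test compound or vehicle. Survival was recorded in each group, and the value is the treated-group measurement divided by that of the vehicle-treated control group.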

[1] = dose: 60.0 mg/kg/injection, schedule: Q01DX005 (ip), vehicle: saline
[2] = dose: 60.0 mg/kg/injection, schedule: Q01DX005 (ip), vehicle: saline with Tween-80
[3] = dose: 120.0 mg/kg/injection, schedule: Q01DX005 (ip), vehicle: saline with Tween-80
[4] = dose: 240.0 mg/kg/injection, schedule: Q01DX005 (ip), vehicle: saline with Tween-80
[5] = dose: 100.0 mg/kg/injection, schedule: Q01DX009 (ip), vehicle: saline with Tween-80
[6] = dose: 25.0 mg/kg/injection, schedule: Q01DX009 (ip), vehicle: other

Compound: COc1c2occc2c(N=Cc2ccncc2)c2ccc(=O)oc12
- T/C (dose: 100.0 mg/kg/injection, schedule: Q01DX001 (ip), vehicle: saline with Tween-80): 88 % of control
- T/C (dose: 200.0 mg/kg/injection, schedule: Q01DX001 (ip), vehicle: saline with Tween-80): 90 % of control
- T/C (dose: 400.0 mg/kg/injection, schedule: Q01DX001 (ip), vehicle: saline with Tween-80): 96 % of control

Compound: CN1C(=O)Cn2c(nn(Cc3ccccc3)c(=O)c2=O)-c2cc(Cl)ccc21
- T/C (dose: 100.0 mg/kg/injection, schedule: Q01DX001 (ip), vehicle: Klucel (hydroxypropylcellulose) (HPC)): 96 % of control
- T/C (dose: 200.0 mg/kg/injection, schedule: Q01DX001 (ip), vehicle: Klucel (hydroxypropylcellulose) (HPC)): 101 % of control
- T/C (dose: 400.0 mg/kg/injection, schedule: Q01DX001 (ip), vehicle: Klucel (hydroxypropylcellulose) (HPC)): 99 % of control

Compound: NCCCSc1ccccc1
- T/C [1]: 99 % of control
- T/C (dose: 120.0 mg/kg/injection, schedule: Q01DX005 (ip), vehicle: saline): 97 % of control

Compound: O=C(Nc1cc(-c2ccccc2)nn1-c1ccccc1)c1ccc(Cl)cc1
- T/C [2]: 99 % of control and 94 % of control
- T/C [3]: 93 % of control
- T/C [4]: 87 % of control and 94 % of control

Compound: CC(=O)c1ccc(Nc2cc(C)nc(N)n2)cc1
- T/C (dose: 15.0 mg/kg/injection, schedule: Q01DX005 (ip), vehicle: saline with Tween-80): 103 % of control
- T/C (dose: 30.0 mg/kg/injection, schedule: Q01DX005 (ip), vehicle: saline with Tween-80): 104 % of control
- T/C [2]: 100 % of control and 105 % of control
- T/C (dose: 100.0 mg/kg/injection, schedule: Q04DX002 (ip), vehicle: saline with Tween-80): 112 % of control
- T/C (dose: 200.0 mg/kg/injection, schedule: Q04DX002 (ip), vehicle: saline with Tween-80): 96 % of control
- T/C (dose: 400.0 mg/kg/injection, schedule: Q04DX002 (ip), vehicle: saline with Tween-80): 99 % of control

Compound: COc1ccc([N+](=O)[O-])cc1Nc1c2ccccc2nc2ccccc12
- T/C (dose: 50.0 mg/kg/injection, schedule: Q01DX009 (ip), vehicle: suspension in saline): 100 % of control
- T/C (dose: 100.0 mg/kg/injection, schedule: Q01DX009 (ip), vehicle: suspension in saline): 110 % of control
- T/C (dose: 200.0 mg/kg/injection, schedule: Q01DX009 (ip), vehicle: suspension in saline): 101 % of control

Compound: CCC(=O)Sc1ccccc1C(=O)Nc1ccc(Cl)cc1
- T/C [5]: 121 % of control and 86 % of control
- T/C (dose: 200.0 mg/kg/injection, schedule: Q01DX009 (ip), vehicle: saline with Tween-80): 97 % of control

Compound: CCCCCC[N+]1([O-])CC[N+]([O-])(CCCCCC)CC1 (centres undefined)
- T/C (dose: 15.0 mg/kg/injection, schedule: Q01DX005 (ip), vehicle: saline): 101 % of control
- T/C (dose: 30.0 mg/kg/injection, schedule: Q01DX005 (ip), vehicle: saline): 102 % of control
- T/C [1]: 102 % of control and 103 % of control

Compound: CC1(C)C(C#N)C(=O)NC(=O)C1C#N (centres undefined)
- T/C (dose: 12.5 mg/kg/injection, schedule: Q01DX009 (ip), vehicle: water): 97 % of control
- T/C (dose: 25.0 mg/kg/injection, schedule: Q01DX009 (ip), vehicle: water): 95 % of control
- T/C (dose: 50.0 mg/kg/injection, schedule: Q01DX009 (ip), vehicle: water): 93 % of control
- T/C (dose: 100.0 mg/kg/injection, schedule: Q01DX009 (ip), vehicle: water): 104 % of control
- T/C (dose: 200.0 mg/kg/injection, schedule: Q01DX009 (ip), vehicle: water): 101 % of control

Compound: CC(C)c1ccc2nc3ccc(C(=O)NCCN(C)C)cn3c(=O)c2c1
- T/C (dose: 60.0 mg/kg/injection, schedule: Q01DX005 (ip), vehicle: Klucel (hydroxypropylcellulose) (HPC)): 105 % of control
- T/C (dose: 120.0 mg/kg/injection, schedule: Q01DX005 (ip), vehicle: Klucel (hydroxypropylcellulose) (HPC)): 101 % of control

Compound: C[n+]1cccc(Oc2ccc[n+](C)c2)c1
- T/C [2]: 100 % of control
- T/C [3]: 99 % of control
- T/C [4]: 109 % of control

Compound: C#CC(C)OCC(C)OC(C)=O (centres undefined)
- T/C (dose: 150.0 mg/kg/injection, schedule: Q01DX009 (ip), vehicle: saline with Tween-80): 88 % of control
- T/C (dose: 225.0 mg/kg/injection, schedule: Q01DX009 (ip), vehicle: saline with Tween-80): 88 % of control

Compound: O=C1c2cccc(O)c2C(=O)c2c1cc(CO)c(-c1c(CO)cc3c(c1O)C(=O)c1c(O)cccc1C3=O)c2O
- T/C (dose: 3.75 mg/kg/injection, schedule: Q01DX005 (ip), vehicle: Klucel (hydroxypropylcellulose) (HPC)): 98 % of control
- T/C (dose: 7.5 mg/kg/injection, schedule: Q01DX005 (ip), vehicle: Klucel (hydroxypropylcellulose) (HPC)): 100 % of control
- T/C (dose: 15.0 mg/kg/injection, schedule: Q01DX005 (ip), vehicle: Klucel (hydroxypropylcellulose) (HPC)): 99 % of control

Compound: O=C1OCc2c1cc1cc3c(cc1c2-c1ccc2c(c1)OCO2)OCO3
- T/C (dose: 12.5 mg/kg/injection, schedule: Q01DX009 (ip), vehicle: Klucel (hydroxypropylcellulose) (HPC)): 91 % of control
- T/C (dose: 25.0 mg/kg/injection, schedule: Q01DX009 (ip), vehicle: Klucel (hydroxypropylcellulose) (HPC)): 100 % of control
- T/C (dose: 50.0 mg/kg/injection, schedule: Q01DX009 (ip), vehicle: Klucel (hydroxypropylcellulose) (HPC)): 100 % of control
- T/C (dose: 100.0 mg/kg/injection, schedule: Q01DX009 (ip), vehicle: Klucel (hydroxypropylcellulose) (HPC)): 98 % of control

Compound: [O-]c1cc2c3c(c1)c1cc4c(cc1c[n+]3C=C2)OCO4
- T/C [6]: 123 % of control

Compound: CC1(O)C=CC(=O)C=C1
- T/C (dose: 1.56 mg/kg/injection, schedule: Q01DX009 (ip), vehicle: distilled water + Tween-80): 103 % of control
- T/C (dose: 3.13 mg/kg/injection, schedule: Q01DX009 (ip), vehicle: distilled water + Tween-80): 102 % of control
- T/C (dose: 6.25 mg/kg/injection, schedule: Q01DX009 (ip), vehicle: distilled water + Tween-80): 109 % of control
- T/C (dose: 12.5 mg/kg/injection, schedule: Q01DX009 (ip), vehicle: distilled water + Tween-80): 109 % of control

Compound: CC(C(=O)NC(=O)O)S(=O)(=O)O (centres undefined)
- T/C (dose: 12.5 mg/kg/injection, schedule: Q01DX001 (ip), vehicle: saline with Tween-80): 101 % of control
- T/C (dose: 25.0 mg/kg/injection, schedule: Q01DX001 (ip), vehicle: saline with Tween-80): 103 % of control

Compound: CCCCCC(CN1CCCCC1)C(=O)/C=C/c1ccccc1 (centres undefined)
- T/C (dose: 25.0 mg/kg/injection, schedule: Q01DX009 (ip), vehicle: saline with Tween-80): 101 % of control
- T/C (dose: 50.0 mg/kg/injection, schedule: Q01DX009 (ip), vehicle: saline with Tween-80): 107 % of control
- T/C [5]: 117 % of control

Compound: CNCCc1ccc(O)c(O)c1
- T/C (dose: 100.0 mg/kg/injection, schedule: Q01DX009 (ip), vehicle: saline): 108 % of control and 118 % of control
- T/C (dose: 200.0 mg/kg/injection, schedule: Q01DX009 (ip), vehicle: saline): 111 % of control and 98 % of control
- T/C (dose: 400.0 mg/kg/injection, schedule: Q01DX009 (ip), vehicle: saline): 116 % of control and 90 % of control

Compound: CCN(CC)c1ccc2cc(-c3nc4ccccc4s3)c(=O)oc2c1
- T/C (dose: 100.0 mg/kg/injection, schedule: Q04DX003 (ip), vehicle: Klucel (hydroxypropylcellulose) (HPC)): 92 % of control
- T/C (dose: 200.0 mg/kg/injection, schedule: Q04DX003 (ip), vehicle: Klucel (hydroxypropylcellulose) (HPC)): 92 % of control
- T/C (dose: 400.0 mg/kg/injection, schedule: Q04DX003 (ip), vehicle: Klucel (hydroxypropylcellulose) (HPC)): 104 % of control

Compound: C[CH2][Pb]([CH2]C)([CH2]C)[N]1C(=O)c2ccccc2C1=O
- T/C (dose: 1.56 mg/kg/injection, schedule: Q01DX009 (ip), vehicle: Klucel (hydroxypropylcellulose) (HPC)): 110 % of control
- T/C (dose: 3.12 mg/kg/injection, schedule: Q01DX009 (ip), vehicle: Klucel (hydroxypropylcellulose) (HPC)): 118 % of control

Compound: CC(C)(C)c1cc(C(C)(C)C)c2ssnc1-2
- T/C [2]: 89 % of control
- T/C [3]: 91 % of control
- T/C [4]: 91 % of control

Compound: COc1cccc2c1C(=O)c1c(O)c3c(c(O)c1C2=O)CC(O)(/C=N/NS(=O)(=O)c1ccc(C)cc1)CC3OC1CC(N)C(O)C(C)O1 (centres undefined)
- T/C (dose: 6.25 mg/kg/injection, schedule: Q01DX009 (ip), vehicle: other): 153 % of control
- T/C (dose: 12.5 mg/kg/injection, schedule: Q01DX009 (ip), vehicle: other): 178 % of control
- T/C [6]: 93 % of control

Compound: COC(=O)c1ccc(C(N)=O)nc1
- T/C (dose: 25.0 mg/kg/injection, schedule: Q04DX002 (ip), vehicle: Klucel (hydroxypropylcellulose) (HPC)): 97 % of control
- T/C (dose: 50.0 mg/kg/injection, schedule: Q04DX002 (ip), vehicle: Klucel (hydroxypropylcellulose) (HPC)): 101 % of control
- T/C (dose: 100.0 mg/kg/injection, schedule: Q04DX002 (ip), vehicle: Klucel (hydroxypropylcellulose) (HPC)): 96 % of control
- T/C (dose: 200.0 mg/kg/injection, schedule: Q04DX002 (ip), vehicle: Klucel (hydroxypropylcellulose) (HPC)): 105 % of control

Compound: COc1cc2c(c(OC)c1OC)-c1ccc(OC)c(=O)cc1C(=O)CC2
- T/C (dose: 0.62 mg/kg/injection, schedule: Q01DX009 (ip), vehicle: Klucel (hydroxypropylcellulose) (HPC)): 115 % of control
- T/C (dose: 5.0 mg/kg/injection, schedule: Q01DX009 (ip), vehicle: Klucel (hydroxypropylcellulose) (HPC)): 157 % of control
